Experimental data taken from US20170240556A1, “BIFLUORODIOXALANE-AMINO-BENZIMIDAZOLE KINASE INHIBITORS FOR THE TREATMENT OF CANCER, AUTOIMMUNEINFLAMMATION AND CNS DISORDERS” (4SC DISCOVERY GMBH, priority 2012, published 2017).

Assays:
[1] = system: Hedgehog signaling pathway; experiment: Hedgehog reporter assay (Gli Reporter - NIH3T3 Cell Line); format: cell-based; settings: Mus musculus; Gli reporter NIH3T3 cells, murine SHH stimulation, 24 h; read-out: HH Assay
Experimental: In order to investigate the potency of test compounds to inhibit the Hedgehog signaling pathway, a Gli-Reporter assay was performed.
The “Gli Reporter—NIH3T3 Cell Line” contains the firefly luciferase gene under the control of Gli responsive elements stably integrated into murine NIH3T3 cells (cells purchased from Amsbio). The luciferase expression correlates with activation of the hedgehog signaling pathway. This cell line is validated for its response to stimulation with murine Sonic Hedgehog and to treatment with inhibitors of the hedgehog signaling pathway. A multiplexed viability assay was used to discriminate inhibition on the pathway activity from cell toxicity.
Growth Medium: DMEM, 10% Calf Serum, 1% Penicillin/Streptomycin 500 μg/ml Geneticin (G418 Stock 50 mg/ml).
25.000 cells per well were seeded into a white 96 well plate in 100 μl growth medium and incubated over night at 37° C. and 5% CO2. After removing the supernatant the test compounds and controls (known GLI inhibitor, e.g. GANT-61) were added in different concentrations in a final volume of 45 μl and incubated for 1 h at 37° C. and 5% CO2. For the stimulation of the Hedgehog pathway 5 μl of 10 μg/ml concentrated murine sonic hedgehog (SHH) was added to the cells. A final concentration of 1 μg/ml mSHH and 0.1% DMSO was reached per well. After incubation for 24 h at 37° C. the cells were investigated for viability and reporter activity.
Viability: For the determination of the viability of the treated cells the CellTiter-Fluor Kit from Promega was used. Essentially, only proteases of viable cells are able to cleave the cell-permeant substrate Gly-Phe-AFCoumarin (GF-AFC). By this cleavage the fluorescent AFC is set free and can be detected in a fluorescence reader. For this assay 10 μl of GF-AFC substrate (CellTiter-Fluor, Promega #G6082) was diluted in 2 ml assay buffer from the CellTiter-Fluor Kit and 10 μl of this dilution was added per well to the cells and incubated for 30 min at 37° C. The fluorescence was measured with excitation at 380-400 nm and emission at 505 nm.
Reporter activity: The firefly luciferase reporter activity was detected with the ONE-Glo™ Luciferase Assay System from Promega. For this assay 50 μl ONE-Glo luciferase reagent (Promega #E6120, contains cell lysis buffer and luciferin) was added to each well and incubated at room temperature for 5 min. Luminescence was detected in a plate reader and served as a degree for reporter activity.

[2] = system: 5637 (bladder); experiment: Proliferation Assay; format: cell-based; settings: 72 h, read-out: IC50 inhibition of cell growth
Experimental: (§1) For the determination of the inhibitory capacity of compounds of the present invention (in the following: “test compound(s)”) on cell growth, cancer cells were seeded into microtitre plates, treated with different concentrations of test compound or left untreated, and after 72 h the protein content was determined as an equivalent for the cell number.
(§2) Test compounds were dissolved in 100% DMSO and predilutions in cell culture medium were prepared with a final concentration of 0.1% DMSO in medium. The cell culture medium for dilution of the test compounds, consecutive culturing of cell lines and usage during the assay was a cell line specific medium as recommended by the cell line supplier and identical for all three applications mentioned above. After a 24-hour pre-growth period of the seeded cancer cells, the test compound containing media or medium containing 0.1% DMSO as control was added to the cells. The cells were allowed to grow at 37° C. for 72 hours. In addition, all experiments contained a few plates with cells that were processed for measurement immediately after the 24 hours recovery period. These plates contained information about the cell number that existed before treatment, at time zero, and served to calculate the cytotoxicity and/or growth inhibitory effects.
(§3) After treatment, cells were precipitated by addition of 10% TCA (trichloracetic acid). Prior to fixation, the media was aspirated. After an hour of incubation at 4° C. the plates were washed twice with 400 μl of deionized water. Cells were then stained with 100 μl of a 0.08% wt/v SRB (sulforhodamine). The plates were allowed to sit for at least 30 min and washed six times with 1% acetic acid to remove unbound staining agent. The plates were left to dry at room temperature and bound SRB was solubilized with 100 μl of 10 mM Tris base. Measurement of optical density was performed at 560 nm on a Victor 2 plate reader (Perkin Elmer, Germany).
(§4) One common way to express the effect of an anticancer agent is to measure cell viability and survival in the presence of the test agent as % Treated/Control×100. The relationship between the viability and dose is called a dose response curve. Those dose response curves were determined by using algorithms developed by Oncolead GmbH & Co. KG, Munich, Germany, that can be compared to commercial applications, e.g. XLfit™ (ID Business Solutions Ltd., Guildford, UK) algorithm “205”.

[3] = system: SKLMS1 (uterus); experiment: Proliferation Assay; format: cell-based; settings: Homo sapiens, SK-LMS-1, 72 h, read-out: IC50 inhibition of cell growth
Experimental: as §1, §2, §3, §4

[4] = system: IMR90 (lung); experiment: Proliferation Assay; format: cell-based; settings: Homo sapiens, IMR-90, 72 h, read-out: IC50 inhibition of cell growth
Experimental: as §1, §2, §3, §4

[5] = system: CLS439 (bladder); experiment: Proliferation Assay; format: cell-based; settings: 72 h, read-out: IC50 inhibition of cell growth
Experimental: as §1, §2, §3, §4

[6] = system: NCIH82 (lung); experiment: Proliferation Assay; format: cell-based; settings: Homo sapiens, NCI-H82, 72 h, read-out: IC50 inhibition of cell growth
Experimental: as §1, §2, §3, §4

[7] = system: RD (muscle); experiment: Proliferation Assay; format: cell-based; settings: 72 h, read-out: IC50 inhibition of cell growth
Experimental: as §1, §2, §3, §4

[8] = system: DU145 (prostate); experiment: Proliferation Assay; format: cell-based; settings: Homo sapiens, DU-145, 72 h, read-out: IC50 inhibition of cell growth
Experimental: as §1, §2, §3, §4

[9] = system: T24 (bladder); experiment: Proliferation Assay; format: cell-based; settings: 72 h, read-out: IC50 inhibition of cell growth
Experimental: as §1, §2, §3, §4

[10] = system: U2OS (bone); experiment: Proliferation Assay; format: cell-based; settings: Homo sapiens, 72 h, read-out: IC50 inhibition of cell growth
Experimental: as §1, §2, §3, §4

[11] = target: Casein kinase 1 delta (CSKN1D) (Homo sapiens, UniProt P48730); experiment: Casein kinase assay, CK1 delta; format: biochemical; settings: recombinant CSKN1D 5 nM, ATP 10 μM
Casein kinase 1 delta (CSKN1D), sequence (P48730 whole entry): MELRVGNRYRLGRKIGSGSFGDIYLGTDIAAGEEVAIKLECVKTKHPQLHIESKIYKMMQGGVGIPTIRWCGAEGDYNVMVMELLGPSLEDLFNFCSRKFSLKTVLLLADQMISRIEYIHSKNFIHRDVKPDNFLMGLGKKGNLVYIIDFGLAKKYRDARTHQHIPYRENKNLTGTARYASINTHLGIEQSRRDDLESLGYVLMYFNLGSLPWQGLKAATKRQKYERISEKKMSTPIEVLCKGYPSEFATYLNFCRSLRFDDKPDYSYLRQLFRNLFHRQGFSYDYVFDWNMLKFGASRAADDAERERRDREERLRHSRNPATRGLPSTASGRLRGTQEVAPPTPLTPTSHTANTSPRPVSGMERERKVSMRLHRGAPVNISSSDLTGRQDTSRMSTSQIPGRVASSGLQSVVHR

IC50 [1]: ≤ 0.5 µM
IC50 [3]: ≤ 1 µM
IC50 [8]: ≤ 1 µM
IC50 [9]: ≤ 1 µM
IC50 [10]: ≤ 1 µM
IC50 [11]: < 0.2 µM
Structure (SMILES): COc1cccc(C(=O)Nc2nc3cc4c(cc3[nH]2)OC(F)(F)O4)c1 [Compound 56, N-(2,2-difluoro-5H-[1,3]dioxolo[4′,5′:4,5]benzo[1,2-d]imidazol-6-yl)-3-methoxybenzamide]
IC50 [2]: ≤ 1 µM
IC50 [4]: ≤ 1 µM
IC50 [5]: ≤ 1 µM
IC50 [6]: ≤ 1 µM
IC50 [7]: ≤ 1 µM
